Here are results for 7 compounds from PubChem BioAssay (NCI).

Where “and” joins values, the source holds several entries; their conditions need not be identical. Identical values can stand only once.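 The compound was tested at five concentrations on cells cultured in 96-well plates, with a 48-hour exposure period. GI50 marks 50% less growth. TGI is the concentration that stops growth completely.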

Holding throughout (assay): NCI tumour cell line growth inhibition, 48 h
For experiment [1], the system named is HL-60(TB) leukemia.
In experiment [2] the test system is HCC-2998 colon.
In experiment [3] the test system is MCF7 breast.
For experiment [4], the system named is NCI-H460 lung.
For experiment [5], the system named is A498 renal.
The subject of experiment [6] is OVCAR-8 ovarian.
Experiment [7] has as its system NCI-H522 lung.
In experiment [8] the test system is NCI-H23 lung.
Experiment [9] has as its system UACC-62 melanoma.
For experiment [10], the system named is SK-MEL-5 melanoma.

`NS(=O)(=O)c1ccc(N=Nc2c(=O)[nH]c3ccc4[nH]cccc4c23)cc1`: the GI50 in experiment [1] was 0.557 µM; in experiment [2] it was 0.398 µM; in [3], 0.129 µM; in experiment [4], 0.792 µM; in experiment [5], 0.671 µM; in experiment [6], 0.342 µM. For the same compound, the GI50 is 0.197 µM in experiment [7], 0.671 µM in experiment [8], 0.487 µM in experiment [9] and 0.256 µM in experiment [10]. The TGI in [1] is 1.53 µM; in experiment [2] it was 2 µM; in experiment [3], above 25 µM; in [4], above 25 µM; in experiment [5] it was 1.45 µM; in experiment [6], above 25 µM. The TGI was 0.818 µM in experiment [7], 3.77 µM in experiment [8], 1.62 µM in experiment [9] and 4.69 µM in experiment [10].

`COc1cc[nH]c1/C=C1\C(=O)Nc2ccc([N+](=O)[O-])c(N3CC[C@@H](O)C3)c21`: the GI50 in experiment [1] was 0.0831 µM; in [2], 0.544 µM; in experiment [3], 0.121 µM; in [4], 0.119 µM; in experiment [5], 0.182 µM; in experiment [6], 0.278 µM. Besides, the GI50 in [7] is 0.393 µM; in experiment [8], 0.484 µM; in experiment [9], 0.338 µM; in experiment [10], 0.181 µM. For the same compound, the TGI in experiment [1] came out at 0.213 µM; in experiment [2], 2 µM; in [3] it was 2.85 µM; in experiment [4], 2.92 µM; in experiment [5], 0.815 µM; in experiment [6], 3.46 µM. Besides, the TGI in experiment [7] is 1.23 µM; in [8], 1.89 µM; in experiment [9] it was 0.762 µM; in experiment [10], 0.847 µM.

Consider `O=C(CN1CCN(c2ccccn2)CC1)Nc1ccc(Cl)cc1C(=O)c1ccccc1Cl`, for which the GI50 in experiment [1] was 5.51 µM; in experiment [2] it was above 100 µM; in experiment [3] it was 9.26 µM; in [4], 93.6 µM; in [5], 24.5 µM; in experiment [6], above 100 µM. The GI50 in experiment [7] is 16.6 µM; in experiment [8] it was 86.2 µM; in experiment [9], 12.8 µM; in experiment [10] it was 10.2 µM. In addition, the TGI in [1], in experiment [2], in experiment [3], in experiment [4], in experiment [5] and in experiment [6] was above 100 µM each time. Also, the TGI in experiment [7] is above 100 µM; in experiment [8], above 100 µM; in experiment [9], above 100 µM; in [10], 38.3 µM.

Turning to `NC(N)=NC(N)=NCc1ccco1`, the GI50 is 390 µM in experiment [1]; above 1250 µM in [2]; 600 µM in experiment [3]; 866 µM and 766 µM in [4]; 190 µM and > 1250 µM in experiment [5]; 896 µM in [6]. Also, the GI50 in experiment [7] is above 1250 µM; in [8], 869 µM and 661 µM; in experiment [9], 748 µM; in [10], 363 µM and 119 µM. Moreover, the TGI in experiment [1], in experiment [2], in experiment [3], in experiment [4], in [5] and in experiment [6] was above 1250 µM throughout. For the same compound, the TGI in [7], in [8], in experiment [9] and in experiment [10] was above 1250 µM throughout.

Regarding `CC(=O)N1c2ccc(-c3ccc(C(=O)O)cc3)cc2[C@H](Nc2ccc(Cl)cc2)C[C@@H]1C`, the GI50 in experiment [1] was 0.0384 µM; in [2] it was 0.371 µM; in experiment [3], 0.0273 µM; in experiment [4] it was 1.61 µM; in experiment [5], 0.0667 µM; in experiment [6] it was 2.52 µM. The GI50 in [7] was 0.0637 µM; in experiment [8], 0.918 µM; in experiment [9], 0.0261 µM; in experiment [10], 0.357 µM. Also, the TGI was 11.1 µM in [1]; 7.81 µM in experiment [2]; above 100 µM in experiment [3]; above 55.6 µM in experiment [4]; 1.71 µM in experiment [5]; 63.5 µM in experiment [6]. The TGI in [7] was determined as 11.5 µM; in experiment [8], 44.3 µM; in [9], 11.5 µM; in experiment [10], 12.6 µM.

Turning to `CCN1C(=O)N(CC)C2C1NN=c1s/c(=C\c3cnc(C)n3C)c(=O)n12` (stereo not given), the GI50 in experiment [1] was 1.61 µM; in [2] it was 2.65 µM; in experiment [3], 0.676 µM; in experiment [4] it was 2.67 µM; in experiment [5] it was 0.946 µM; in experiment [6] it was 3.41 µM. In addition, the GI50 in experiment [7] is 1.33 µM; in experiment [8], 3.17 µM; in [9], 1.14 µM; in experiment [10] it was 1.2 µM. In addition, the TGI in experiment [1] was 4.03 µM; in experiment [2], 14.5 µM; in experiment [3] it was above 100 µM; in [4] it was above 100 µM; in experiment [5], 5.43 µM; in experiment [6], above 100 µM. The TGI in experiment [7] was 4.34 µM; in experiment [8] it was above 100 µM; in [9] it was 88 µM; in experiment [10] it was 11.1 µM.

`CNCC1CCn2c(c(C3=C(c4cn(C)c5ccccc45)C(=O)NC3=O)c3ccccc32)C1` (stereo not given): the GI50 is 3.7 µM in experiment [1]; 3.76 µM in [2]; 1.74 µM in [3]; 2.91 µM in experiment [4]; 5.65 µM in [5]; 3.87 µM in experiment [6]. Also, the GI50 in experiment [7] was 3.09 µM; in [8], 2.99 µM; in experiment [9] it was 3.16 µM; in experiment [10] it was 3.88 µM. The TGI in experiment [1] was 8.61 µM; in experiment [2], 7.77 µM; in [3], 5.17 µM; in [4] it was 6.55 µM; in experiment [5] it was 14.5 µM; in experiment [6], 10.4 µM. Also, the TGI in experiment [7] worked out at 6.49 µM; in experiment [8] it was 8.03 µM; in experiment [9], 6.48 µM; in experiment [10] it was 7.97 µM.
